Data on nine compounds can be found in article PMC10301393 (Viruses, 2023).

In series [1] the test system is SARS-CoV. As to conditions: Vero E6 cells; cited from earlier work.
Series [2] deals with SARS-CoV 3CL protease (3CLpro). As to conditions: cited from earlier work.
The subject of series [3] is MRC-5 cells. Kind of series: Cell morphology in photonic microscope observation. In kind it is cell-based, human. To be noted: antiviral assay.
Series [4] relates to human coronavirus 229E (HCoV 229E). Kind of series: Anti-HCoV 229E assay: reduction in viral titer. In kind it is cell-based, human coronavirus 229E in MRC-5 human lung fibroblast. As to conditions: MRC-5 cells, compound at 3 μg/mL, 72 h, Figure 3 (n = 1).
For series [5] the test system is unchanged. The series can be described thus: Anti-HCoV 229E assay: reduction in virus-induced cytopathogenic effect. It counts as cell-based, human coronavirus 229E in MRC-5 human lung fibroblast. As to conditions: MRC-5 cells, compound at 3 μg/mL (16: 6.7 μM), MOIs 0.01–0.001, 72 h, Figure 4 (n = 3). A general note: Damage to the host cells serves as the signal in cytopathic effect assays.

In series [6] the test system is SARS-CoV-2. Details: method as in earlier work. To be noted: cited from earlier work.

≈ marks a conversion by molar mass, not a printed value.

As a reminder, the EC50 is the concentration at which the effect is half-maximal. By IC50 is commonly meant the concentration needed to halve the response being measured. Consider `CC(C)c1cc2c(cc1O)[C@@]1(C)CCCC(C)(C)[C@@H]1CC2` [Compound 1, (+)-ferruginol], for which the EC50 in series [1] is 1390 nM. Moreover, the “inhibition for SARS-CoV 3CL protease” value in series [2] (below 100 μM) was “did not show inhibition”. For the same compound, in series [2], the 50% inhibitory concentration (IC50) is 49600 nM.

Regarding `CC(C)c1cc2c(cc1O)[C@@]1(C)CCC[C@@](C)(CN3C(=O)c4cccc(F)c4C3=O)[C@@H]1CC2` [Compound 15, 12-Hydroxy-N,N-(3-fluorophthaloyl)dehydroabietylamine], the “modification of the cell morphology” value in series [3] is on record as “induced modification of the cell morphology”. In the case of `CC(=O)Oc1cc2c(cc1C(C)C)C=C[C@H]1C(C)(C)[C@@H](OC(C)=O)CC[C@]21C` [Compound 2, 3β,12-diacetoxyabieta-6,8,11,13-tetraene, reference compound], the EC50 in series [1] was 1570 nM.

`CC(C)c1cc2c(cc1O)[C@@]1(C)CCC[C@@](C)(CN3C(=O)c4ccccc4C3=O)[C@@H]1CC2` [Compound 3, 18-(phthalimid-2-yl) ferruginol]: the “reduction in the viral titer” value in series [4] is reported as “important reductions in the viral titer”. Also, the “modification of the cell morphology” value in series [3] is given as “induced modification of the cell morphology”. `C=C(CO)c1ccc2c(c1)CC[C@H]1[C@@](C)(C(=O)O)CCC[C@]21C` [Compound 7, jiadifenoic acid C, reference compound]: the “reduction in the viral-induced cytopathogenic effect (CPE)” value in series [5] is on record as “no activity”. As to `Cc1coc2c1C(=O)C(=O)c1c-2ccc2c1CCCC2(C)C` [tanshinone IIA], in series [6], the “IC50 (anti-SARS-CoV-2 activity)” value was 4.08 µg/mL (≈ 13.9 µM). In the case of `CC(C)c1cc2c(cc1O)[C@@]1(C)CCC[C@@](C)(CN)[C@@H]1CC2` [Compound 14, 12-hydroxydehydroabietylamine], the “reduction in the viral-induced cytopathogenic effect (CPE)” value in series [5] is “reduce the cytopathogenic effect”. Regarding `CC(C)c1cc2c(cc1O)[C@@]1(C)CCC[C@@](C)(CO)[C@@H]1CC2` [Compound 12], in series [4], the “reduction in the viral titer” value is about 0.5 log. Same read-out and setting: in the case of `CC(C)c1cc2c(cc1O)[C@@]1(C)CCC[C@@](C)(CN3C(=O)c4ccc(F)cc4C3=O)[C@@H]1CC2` [Compound 16, 12-Hydroxy-N,N-(4-fluorophthaloyl)dehydroabietylamine] it was “approximately 2 log”.
